Data published in US20230295197A1, “STAT5 and STAT6 Degraders and Uses Thereof” (REGENTS OF THE UNIVERSITY OF MICHICAN, priority 2022, published 2023).
Like-named read-outs stand apart in the source and are kept apart here.

Biological target: T1, STAT6 (Homo sapiens, UniProt P42226)
T1 construct: endogenous in cells; host or cells: MOLM-16, KU-812, SKNO1, MB231, L1236
T1 sequence (P42226 1-847): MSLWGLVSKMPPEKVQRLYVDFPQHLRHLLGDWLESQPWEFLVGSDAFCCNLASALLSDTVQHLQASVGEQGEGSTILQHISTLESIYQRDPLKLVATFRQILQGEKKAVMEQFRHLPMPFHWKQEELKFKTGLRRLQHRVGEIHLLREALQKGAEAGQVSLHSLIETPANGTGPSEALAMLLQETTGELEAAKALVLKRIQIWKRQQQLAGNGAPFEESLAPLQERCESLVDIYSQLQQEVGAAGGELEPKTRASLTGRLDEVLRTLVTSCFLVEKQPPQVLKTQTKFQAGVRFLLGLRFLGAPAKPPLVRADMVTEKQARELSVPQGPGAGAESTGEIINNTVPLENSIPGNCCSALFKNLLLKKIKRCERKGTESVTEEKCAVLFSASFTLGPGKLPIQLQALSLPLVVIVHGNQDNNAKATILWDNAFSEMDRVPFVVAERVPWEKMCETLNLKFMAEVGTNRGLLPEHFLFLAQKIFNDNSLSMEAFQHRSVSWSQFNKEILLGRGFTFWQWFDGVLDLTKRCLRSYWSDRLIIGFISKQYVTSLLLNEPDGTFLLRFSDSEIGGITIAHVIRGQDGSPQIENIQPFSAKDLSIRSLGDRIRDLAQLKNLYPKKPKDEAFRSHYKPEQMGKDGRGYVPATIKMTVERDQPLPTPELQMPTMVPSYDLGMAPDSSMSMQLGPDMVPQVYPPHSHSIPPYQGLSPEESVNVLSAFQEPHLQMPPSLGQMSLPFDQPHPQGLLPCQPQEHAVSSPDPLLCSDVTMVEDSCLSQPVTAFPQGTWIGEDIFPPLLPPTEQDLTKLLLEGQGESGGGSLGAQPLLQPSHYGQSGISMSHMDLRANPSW
Assay: Immunoblotting (Western blot) analysis of STAT6 degradation efficiency of degraders in treated cells
Assay type: cell-based
Protocol: Evaluation of the degradation efficiency of degraders may be accomplished by immunoblotting analysis. The representative general protocol is the following:
Cells are maintained in the appropriate culture medium with 10% FBS at 37° C. and an atmosphere of 5% CO2. Cell lines are used within three months of thawing fresh vials. Cells are lysed 1× Cell Lysis Buffer (Cell Signaling Technology, #9803), resolved by SDS-PAGE NuPAGE gel (Thermo Fisher Scientific), and transferred to a PVDF membrane (Millipore). Membranes are blocked using Odyssey TBS Blocker Buffer (LI-COR). IRDye 680RD and 800CW Dye-labeled secondary antibodies (LI-COR) are used. The washed membranes are scanned using Odyssey CLx imager (LI-COR). The intensity of Western blot signaling is quantitated using the Odyssey software. Primary antibodies used are: STAT5 Rabbit mAb (Cell Signaling Technology, #94205), STAT6 Rabbit mAb (Cell Signaling Technology, #5397) and GAPDH mouse monoclonal antibody (Santa Cruz Biotechnology, sc-47724).
To evaluate the degradation efficiency of degraders, immunoblotting analysis was performed. The general protocol is the following.
About 1 million cells for each data point were treated with compounds at indicated concentrations and durations. Untreated and treated cells in cell culture medium were transferred into tubes, followed by centrifugation at 3,000 rpm and 4° C. for 6 min Supernatants were removed from tubes and radioimmunoprecipitation assay (RIPA) lysis buffer supplemented with 1% protease inhibitor cocktail (Fisher Scientific cat. PI87786) and phosphatase inhibitor (Roche cat. 04906837001) were added to tubes containing the remaining cell pellets. The tubes were then left on ice for 30 min and placed in a −80° C. freezer. Subsequently they were thawed in 37° C. water, then centrifuged at 14,000 rpm for 15 min and the cell lysates transferred to new tubes. The concentration of total proteins in each tube was calculated using the Pierce BCA protein Assay kit (cat. 23225). Based on the calculated protein concentration, cell lysates containing approximately the same amount of proteins were transferred to new tubes, then distilled water and 4× Protein Sample Loading Buffer for Western Blots (LI-COR cat. 928-40004) supplemented with 20% of mercaptoethanol (Sigma Aldrich cat. M6250) were added on ice. The cell lysates were then reduced and denatured at 95° C. for 5 min. From the tubes containing cell lysates an equal amount of protein samples (20-40 μg) was loaded into precast 8%, 10%, 4%-12%, or 4%-20% Tris-glycine gels (Novex) filled with Tris-glycine SDS running buffer. After the proteins were resolved, they were transferred onto Immobile-FL PVDF Membrane (Millipore Sigma cat. IPFL00010), using Mini Trans-Blot Electrophoretic Transfer Cell (Bio-Rad 1703930). The membranes were blocked with Intercept Blocking Buffer (LI-COR cat. 927-70001) in LI-COR Western Blot boxes for 1 h at rt. The membranes were washed with 1× Tris-buffered saline-Tween-20 (TBST, 1× solution was made from 20×TBST solution, ThermoFisher Scientific cat. 28360) for 5 min 4 times. The membranes were incubated overnight at 4° C. in Intercept Blocking Buffer supplemented with primary antibodies (normally antibody:buffer 1:1000) and Tween-20. The membranes were washed with TBST for 5 min 4 times and were incubated with Intercept Blocking Buffer supplemented with IRDye 800CE Secondary Antibodies, IRDye 680RD Secondary Antibodies (LI-COR biosciences), Tween-20, and 10% SDS solution, for 1 h at rt. The membranes were then washed with TBST for 5 min 4 times and rinsed with deionized water before drying and scanning with Odyssey Dlx Amazing System (LI-COR). The immunoblots were finally quantified by the software.

[1] = L1236 cells, read-out: DC50 S6 L1236
[2] = MOLM-16 cells, class symbols, read-out: DC50 S6 MOLM-16

Compound | DC50 [1] [µM] | DC50 [2] [µM]
Cc1ncsc1-c1ccc([C@H](C)NC(=O)[C@@H]2C[C@@H](O)CN2C(=O)[C@@H](NC(=O)CCCCCCCCNC(=O)CO[C@H]2C[C@@H](C(=O)N3CCC[C@H](c4ccccc4)C3)N(C(=O)[C@@H](NC(=O)c3cc4cc(C(F)(F)P(=O)(O)O)ccc4s3)C(C)(C)C)C2)C(C)(C)C)cc1 [Compound 441, (difluoro(2-(((S)-1-((2S,4S)-4-(2-((9-(((S)-1-((2S,4R)-4-hydroxy-2-(((S)-1-(4-(4-methylthiazol-5-yl)phenyl)ethyl)carbamoyl)pyrrolidin-1-yl)-3,3-dimethyl-1-oxobutan-2-yl)amino)-9-oxononyl)amino)-2-oxoethoxy)-2-((R)-3-phenylpiperidine-1-carbonyl)pyrrolidin-1-yl)-3,3-dimethyl-1-oxobutan-2-yl)carbamoyl)benzo[b]thiophen-5-yl)methyl)phosphonic acid] | > 10 | > 10
CC(C)(C)[C@H](NC(=O)c1cc2cc(C(F)(F)P(=O)(O)O)ccc2s1)C(=O)N1Cc2cc(OCC(=O)NCCC#Cc3cccc4c3C(=O)N(C3CCC(=O)NC3=O)C4=O)ccc2C[C@H]1C(=O)N1CCC[C@H](c2ccccc2)C1 (stereo partly drawn) [Compound 551, ((2-(((2S)-1-((3S)-7-(2-((4-(2-(2,6-dioxopiperidin-3-yl)-1,3-dioxoisoindolin-4-yl)but-3-yn-1-yl)amino)-2-oxoethoxy)-3-((R)-3-phenylpiperidine-1-carbonyl)-3,4-dihydroisoquinolin-2(1H)-yl)-3,3-dimethyl-1-oxobutan-2-yl)carbamoyl)benzo[b]thiophen-5-yl)difluoromethyl)phosphonic acid] |  | > 10
CC(C)(C)[C@H](NC(=O)c1cc2cc(C(F)(F)P(=O)(O)O)ccc2s1)C(=O)N1Cc2cc(OCC(=O)NCCCCCCCCCC#Cc3ccc4c(c3)C(=O)N(C3CCC(=O)NC3=O)C4=O)ccc2C[C@H]1C(=O)N1CCC[C@H](c2ccccc2)C1 (stereo partly drawn) [Compound 562, ((2-(((2S)-1-((3S)-7-(2-((11-(2-(2,6-dioxopiperidin-3-yl)-1,3-dioxoisoindolin-5-yl)undec-10-yn-1-yl)amino)-2-oxoethoxy)-3-((R)-3-phenylpiperidine-1-carbonyl)-3,4-dihydroisoquinolin-2(1H)-yl)-3,3-dimethyl-1-oxobutan-2-yl)carbamoyl)benzo[b]thiophen-5-yl)difluoromethyl)phosphonic acid] |  | > 10
CC(C)(C)[C@H](NC(=O)c1cc2cc(C(F)(F)P(=O)(O)O)ccc2s1)C(=O)N1Cc2cc(OCC(=O)NCCC#Cc3ccc4c(c3)C(=O)N(C3CCC(=O)NC3=O)C4=O)ccc2C[C@H]1C(=O)N1CCO[C@H](c2ccccc2)C1 (stereo partly drawn) [Compound 538, ((2-(((2S)-1-((3S)-7-(2-((4-(2-(2,6-dioxopiperidin-3-yl)-1,3-dioxoisoindolin-5-yl)but-3-yn-1-yl)amino)-2-oxoethoxy)-3-((R)-2-phenylmorpholine-4-carbonyl)-3,4-dihydroisoquinolin-2(1H)-yl)-3,3-dimethyl-1-oxobutan-2-yl)carbamoyl)benzo[b]thiophen-5-yl)difluoromethyl)phosphonic acid] |  | > 10
CC(C)(C)[C@H](NC(=O)c1cc2cc(C(F)(F)P(=O)(O)O)ccc2s1)C(=O)N1CCN(C(=O)CC(=O)NCCCC#Cc2ccc3c(c2)C(=O)N(C2CCC(=O)NC2=O)C3=O)C[C@H]1C(=O)N1CCO[C@H](c2ccccc2)C1 (stereo partly drawn) [Compound 512, ((2-(((25)-1-((2S)-4-(3-((5-(2-(2,6-dioxopiperidin-3-yl)-1,3-dioxoisoindolin-5-yl)pent-4-yn-1-yl)amino)-3-oxopropanoyl)-2-((R)-2-phenylmorpholine-4-carbonyl)piperazin-1-yl)-3,3-dimethyl-1-oxobutan-2-yl)carbamoyl)benzo[b]thiophen-5-yl)difluoromethyl)phosphonic acid] |  | 0.1 to 1
CC(C)(C)[C@H](NC(=O)c1cc2cc(C(F)(F)P(=O)(O)O)ccc2s1)C(=O)N1CCN(C(=O)CC(=O)NCCCCCCCCC#Cc2cccc3c2C(=O)N(C2CCC(=O)NC2=O)C3=O)C[C@H]1C(=O)N1CCO[C@H](c2ccccc2)C1 (stereo partly drawn) [Compound 517, ((2-(((2S)-1-((2S)-4-(3-((10-(2-(2,6-dioxopiperidin-3-yl)-1,3-dioxoisoindolin-4-yl)dec-9-yn-1-yl)amino)-3-oxopropanoyl)-2-((R)-2-phenylmorpholine-4-carbonyl)piperazin-1-yl)-3,3-dimethyl-1-oxobutan-2-yl)carbamoyl)benzo[b]thiophen-5-yl)difluoromethyl)phosphonic acid] |  | > 10
CC(C)(C)[C@H](NC(=O)c1cc2cc(C(F)(F)P(=O)(O)O)ccc2s1)C(=O)N1C[C@@H](OCC(=O)NCCCCCCCCCC#Cc2ccc3c(c2)C(=O)N(C2CCC(=O)NC2=O)C3=O)C[C@H]1C(=O)N1CCC[C@H](c2ccccc2)C1 (stereo partly drawn) [Compound 506, ((2-(((2S)-1-((2S,4S)-4-(2-((11-(2-(2,6-dioxopiperidin-3-yl)-1,3-dioxoisoindolin-5-yl)undec-10-yn-1-yl)amino)-2-oxoethoxy)-2-((R)-3-phenylpiperidine-1-carbonyl)pyrrolidin-1-yl)-3,3-dimethyl-1-oxobutan-2-yl)carbamoyl)benzo[b]thiophen-5-yl)difluoromethyl)phosphonic acid] |  | > 10
Cc1ncsc1-c1ccc([C@H](C)NC(=O)[C@@H]2C[C@@H](O)CN2C(=O)[C@@H](NC(=O)CCCCCCCCCNC(=O)CO[C@H]2C[C@@H](C(=O)N3CCO[C@H](c4ccccc4)C3)N(C(=O)[C@@H](NC(=O)c3cc4cc(C(F)(F)P(=O)(O)O)ccc4s3)C(C)(C)C)C2)C(C)(C)C)cc1 [Compound 433, (difluoro(2-(((S)-1-((2S,4S)-4-(2-((10-(((S)-1-((2S,4R)-4-hydroxy-2-(((S)-1-(4-(4-methylthiazol-5-yl)phenyl)ethyl)carbamoyl)pyrrolidin-1-yl)-3,3-dimethyl-1-oxobutan-2-yl)amino)-10-oxodecyl)amino)-2-oxoethoxy)-2-((R)-2-phenylmorpholine-4-carbonyl)pyrrolidin-1-yl)-3,3-dimethyl-1-oxobutan-2-yl)carbamoyl)benzo[b]thiophen-5-yl)methyl)phosphonic acid] | > 10 | > 10
